Where “and” joins values, the source holds several entries; their conditions need not be identical. Equal entries are not always repeated. Toxic doses and inconclusive results are not listed.
Tested on: P388 leukemia ip, CD2F1 mice, survival T/C
Experiment: NCI In Vivo Anticancer Drug Screen. Data for tumor model P388 Leukemia (intraperitoneal) in CD2F1 (CDF1) mice
Details: endpoint: median survival time, higher = longer survival
Summary of the method: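 Mice carrying the transplanted tumor received test compound or vehicle. Survival was recorded in each group, and the value is the treated-group measurement divided by that of the vehicle-treated control group.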

[1] = dose: 100.0 mg/kg/injection, schedule: Q01DX001 (ip), vehicle: Klucel (hydroxypropylcellulose) (HPC)
[2] = dose: 200.0 mg/kg/injection, schedule: Q01DX001 (ip), vehicle: Klucel (hydroxypropylcellulose) (HPC)
[3] = dose: 400.0 mg/kg/injection, schedule: Q01DX001 (ip), vehicle: Klucel (hydroxypropylcellulose) (HPC)
[4] = dose: 100.0 mg/kg/injection, schedule: Q01DX001 (ip), vehicle: saline with Tween-80
[5] = dose: 200.0 mg/kg/injection, schedule: Q01DX001 (ip), vehicle: saline with Tween-80
[6] = dose: 400.0 mg/kg/injection, schedule: Q01DX001 (ip), vehicle: saline with Tween-80
[7] = dose: 100.0 mg/kg/injection, schedule: Q01DX009 (ip), vehicle: Klucel (hydroxypropylcellulose) (HPC)
[8] = dose: 200.0 mg/kg/injection, schedule: Q01DX009 (ip), vehicle: Klucel (hydroxypropylcellulose) (HPC)
[9] = dose: 50.0 mg/kg/injection, schedule: Q01DX009 (ip), vehicle: saline with Tween-80
[10] = dose: 100.0 mg/kg/injection, schedule: Q01DX009 (ip), vehicle: saline with Tween-80
[11] = dose: 200.0 mg/kg/injection, schedule: Q01DX009 (ip), vehicle: saline with Tween-80

In the case of Cc1ccc(S(=O)(=O)NN=C(C(=O)O)C(=O)O)cc1, the T/C (dose: 12.5 mg/kg/injection, schedule: Q01DX009 (ip), vehicle: distilled water + Tween-80) is reported as 101 % of control, the T/C (dose: 25.0 mg/kg/injection, schedule: Q01DX009 (ip), vehicle: distilled water + Tween-80) is reported as 102 % of control and the T/C (dose: 50.0 mg/kg/injection, schedule: Q01DX009 (ip), vehicle: distilled water + Tween-80) is reported as 100 % of control. The T/C (dose: 200.0 mg/kg/injection, schedule: Q01DX009 (ip), vehicle: distilled water + Tween-80) was 90 % of control.
CNc1c(C(=O)Nc2ccccc2)c(=O)n(C)c(=O)n1C was tested, and the T/C [1] was 94 % of control, the T/C [2] was 92 % of control and the T/C [3] was 93 % of control.
In the case of COc1ccc(C(=O)OC2(C)CC(C)(C)N=[N+]2[O-])cc1 (centres undefined), the T/C (dose: 12.5 mg/kg/injection, schedule: Q01DX009 (ip), vehicle: other) is reported as 108 % of control, the T/C (dose: 25.0 mg/kg/injection, schedule: Q01DX009 (ip), vehicle: other) is reported as 113 % of control and the T/C (dose: 50.0 mg/kg/injection, schedule: Q01DX009 (ip), vehicle: other) is reported as 115 % of control. The T/C (dose: 66.0 mg/kg/injection, schedule: Q01DX009 (ip), vehicle: other) was 102 % of control, the T/C (dose: 100.0 mg/kg/injection, schedule: Q01DX009 (ip), vehicle: other) was 100 % of control and the T/C (dose: 150.0 mg/kg/injection, schedule: Q01DX009 (ip), vehicle: other) was 92 % of control. For the same compound, the T/C (dose: 200.0 mg/kg/injection, schedule: Q01DX009 (ip), vehicle: other) was 113 % of control.
For COc1ccc(S(=O)(=O)N/N=C/c2cnc[nH]2)cc1, the T/C (dose: 12.5 mg/kg/injection, schedule: Q01DX005 (ip), vehicle: Klucel (hydroxypropylcellulose) (HPC)) was 100 % of control, the T/C (dose: 25.0 mg/kg/injection, schedule: Q01DX005 (ip), vehicle: Klucel (hydroxypropylcellulose) (HPC)) was 97 % of control and the T/C (dose: 50.0 mg/kg/injection, schedule: Q01DX005 (ip), vehicle: Klucel (hydroxypropylcellulose) (HPC)) was 97 % of control. The T/C (dose: 100.0 mg/kg/injection, schedule: Q01DX005 (ip), vehicle: Klucel (hydroxypropylcellulose) (HPC)) was 88 % of control, the T/C (dose: 200.0 mg/kg/injection, schedule: Q01DX005 (ip), vehicle: Klucel (hydroxypropylcellulose) (HPC)) was 90 % of control and 94 % of control and the T/C (dose: 400.0 mg/kg/injection, schedule: Q01DX005 (ip), vehicle: Klucel (hydroxypropylcellulose) (HPC)) was 117 % of control.
In the case of Nc1nc(Nc2ccc(C3=NCCN3)cc2)nc(Nc2ccc(C3=NCCN3)cc2)n1, the T/C (dose: 6.25 mg/kg/injection, schedule: Q01DX009 (ip), vehicle: saline) is reported as 122 % of control and the T/C (dose: 6.25 mg/kg/injection, schedule: Q01DX009 (ip), vehicle: suspension in saline) is reported as 108 % of control.
For O=[N+]([O-])c1cccnc1C1OCCO1, the T/C (dose: 50.0 mg/kg/injection, schedule: Q01DX009 (ip), vehicle: saline + Tween-80 + alcohol) was 102 % of control and the T/C (dose: 100.0 mg/kg/injection, schedule: Q01DX009 (ip), vehicle: saline + Tween-80 + alcohol) was 99 % of control.
For C=C1C(=O)OC2CC1C(OC(C)=O)C/C(C)=C/CC/C(C)=C\CCC2(C)O (centres undefined), the T/C (dose: 5.0 mg/kg/injection, schedule: Q01DX009 (ip), vehicle: Klucel (hydroxypropylcellulose) (HPC)) was 107 % of control, the T/C (dose: 8.0 mg/kg/injection, schedule: Q01DX009 (ip), vehicle: Klucel (hydroxypropylcellulose) (HPC)) was 103 % of control and the T/C (dose: 10.0 mg/kg/injection, schedule: Q01DX009 (ip), vehicle: Klucel (hydroxypropylcellulose) (HPC)) was 109 % of control. The T/C (dose: 16.0 mg/kg/injection, schedule: Q01DX009 (ip), vehicle: Klucel (hydroxypropylcellulose) (HPC)) was 95 % of control, the T/C (dose: 20.0 mg/kg/injection, schedule: Q01DX009 (ip), vehicle: Klucel (hydroxypropylcellulose) (HPC)) was 116 % of control and the T/C (dose: 25.0 mg/kg/injection, schedule: Q04DX002 (ip), vehicle: saline) was 100 % of control. The T/C (dose: 32.0 mg/kg/injection, schedule: Q01DX009 (ip), vehicle: Klucel (hydroxypropylcellulose) (HPC)) was 106 % of control, the T/C (dose: 40.0 mg/kg/injection, schedule: Q01DX009 (ip), vehicle: Klucel (hydroxypropylcellulose) (HPC)) was 117 % of control and the T/C (dose: 50.0 mg/kg/injection, schedule: Q04DX002 (ip), vehicle: saline) was 94 % of control. For the same compound, the T/C (dose: 64.0 mg/kg/injection, schedule: Q01DX009 (ip), vehicle: Klucel (hydroxypropylcellulose) (HPC)) was 106 % of control, the T/C (dose: 100.0 mg/kg/injection, schedule: Q04DX002 (ip), vehicle: saline) was 103 % of control and the T/C (dose: 200.0 mg/kg/injection, schedule: Q04DX002 (ip), vehicle: saline) was 103 % of control.
In the case of O=C(Nc1c(Cl)cccc1Cl)Oc1ccc(Cl)cc1, the T/C (dose: 60.0 mg/kg/injection, schedule: Q01DX005 (ip), vehicle: saline with Tween-80) is reported as 122 % of control and the T/C (dose: 120.0 mg/kg/injection, schedule: Q01DX005 (ip), vehicle: saline with Tween-80) is reported as 114 % of control.
Cn1c(=O)ccc2c(=O)c3cc(Br)ccc3oc21 was tested, and the T/C [4] was 98 % of control, the T/C [5] was 107 % of control and the T/C [6] was 96 % of control.
In the case of COc1ccccc1/C=C/C1=C(C)C(=O)CC(c2ccccc2OC)C1C (centres undefined), the T/C [7] is reported as 100 % of control, the T/C [8] is reported as 98 % of control and the T/C (dose: 400.0 mg/kg/injection, schedule: Q01DX009 (ip), vehicle: Klucel (hydroxypropylcellulose) (HPC)) is reported as 92 % of control.
In the case of CCCCC(CCCCCC(CCCC)C1NC(C)Cc2cc(OC)c(OC)cc21)C1NC(C)Cc2cc(OC)c(OC)cc21 (centres undefined), the T/C (dose: 6.25 mg/kg/injection, schedule: Q01DX005 (ip), vehicle: saline) is reported as 99 % of control, the T/C (dose: 12.5 mg/kg/injection, schedule: Q01DX005 (ip), vehicle: saline) is reported as 105 % of control and the T/C (dose: 25.0 mg/kg/injection, schedule: Q01DX005 (ip), vehicle: saline) is reported as 90 % of control.
In the case of C=Cc1cc(OC)c2c(c1)c(=O)oc1c2cc(OC)c2c(O)ccc(C3OC(C)C(O)C(C)(O)C3O)c21 (centres undefined), the T/C (dose: 1.56 mg/kg/injection, schedule: Q01DX005 (ip), vehicle: DMSO) is reported as 115 % of control, the T/C (dose: 3.12 mg/kg/injection, schedule: Q01DX005 (ip), vehicle: DMSO) is reported as 118 % of control and the T/C (dose: 12.5 mg/kg/injection, schedule: Q01DX005 (ip), vehicle: DMSO) is reported as 150 % of control. For the same compound, the T/C (dose: 25.0 mg/kg/injection, schedule: Q01DX005 (ip), vehicle: DMSO) was 150 % of control and the T/C (dose: 50.0 mg/kg/injection, schedule: Q01DX005 (ip), vehicle: DMSO) was 169 % of control.
In the case of C=CCc1ccc(O)cc1, the T/C (dose: 25.0 mg/kg/injection, schedule: Q01DX009 (ip), vehicle: Klucel (hydroxypropylcellulose) (HPC)) is reported as 93 % of control, the T/C (dose: 50.0 mg/kg/injection, schedule: Q01DX009 (ip), vehicle: Klucel (hydroxypropylcellulose) (HPC)) is reported as 99 % of control and the T/C [7] is reported as 107 % of control. For the same compound, the T/C [8] was 99 % of control.
With CCOC(=O)/C=C(/C)Sc1cc(O)ccc1O the T/C [9] was 102 % of control, the T/C [10] was 111 % of control and the T/C [11] was 109 % of control.
For CC(SCc1ccccc1)C(NC(=O)CCl)C(=O)O (centres undefined), the T/C [4] was 100 % of control, the T/C [5] was 97 % of control and the T/C [6] was 91 % of control.
With CCOC(=O)C1=C(N)CCCC1 the T/C (dose: 50.0 mg/kg/injection, schedule: Q01DX001 (ip), vehicle: Klucel (hydroxypropylcellulose) (HPC)) was 107 % of control, the T/C [1] was 96 % of control and the T/C [2] was 110 % of control. The T/C [3] was 99 % of control.
COC(=O)C1=CO[C@@H](OC2OC(CO)C(O)C(O)C2O)[C@@H]2[C@@H](CO)[C@@H](O)[C@@H](OC(=O)/C=C/c3ccc(O)c(O)c3)[C@H]12 (some centres undefined) was tested, and the T/C (dose: 7.25 mg/kg/injection, schedule: Q01DX005 (ip), vehicle: saline + alcohol) was 106 % of control, the T/C (dose: 14.5 mg/kg/injection, schedule: Q01DX005 (ip), vehicle: saline + alcohol) was 107 % of control and the T/C (dose: 29.0 mg/kg/injection, schedule: Q01DX005 (ip), vehicle: saline + alcohol) was 109 % of control. The T/C (dose: 58.0 mg/kg/injection, schedule: Q01DX005 (ip), vehicle: saline + alcohol) was 113 % of control.
For CC(=O)NC(C(=O)O)C(C)SCc1ccccc1 (centres undefined), the T/C [9] was 100 % of control, the T/C [10] was 91 % of control and the T/C [11] was 97 % of control.
With COC(=O)[C@]12C(=O)C=CC(=O)C1CC=CC2C(OC(C)=O)C(COC(C)=O)OC(C)=O (some centres undefined) the T/C [4] was 103 % of control, the T/C [5] was 100 % of control and the T/C [6] was 103 % of control.
For CC(C)(C)C(=O)Oc1ccc([N+](=O)[O-])cc1, the T/C (dose: 100.0 mg/kg/injection, schedule: Q04DX002 (ip), vehicle: saline with Tween-80) was 106 % of control, the T/C (dose: 200.0 mg/kg/injection, schedule: Q04DX002 (ip), vehicle: saline with Tween-80) was 122 % of control and the T/C (dose: 400.0 mg/kg/injection, schedule: Q04DX002 (ip), vehicle: saline with Tween-80) was 102 % of control.

— PubChem BioAssay AID330 (DTP/NCI, 2004)
